Assay results published in patent US20130059096A1, “METHODS AND COATINGS FOR TREATING BIOFILMS” (President and Fellows of Harvard College, priority 2010, published 2013).

What was measured:
[1] = test system: matrix operons eps and yqxM; experiment: Expression of PyqxM-lacZ and PepsA-lacZ (β-galactosidase activity); format: cell-based, Bacillus subtilis; conditions: 3 μM, strains FC122 and FC5, MSgg, shaking
Experimental: Assays of β-galactosidase activity. Cells were cultured in MSgg medium at 37° C. in a water bath with shaking 1 ml of culture was collected at each time point. β-galactosidase activity was determined as described previously (Chai et al., Mol. Microbiol. 67:254 (2008)).

Bacillus subtilis [2] = experiment: Disruption of existing 3 day-old pellicles; format: cell-based; conditions: 3 μM added to 3 day-old cultures, further 8 hours
P.a. Harvard PA14 = experiment: Biofilm (colony architecture) formation on defined M63 medium; format: cell-based, Pseudomonas aeruginosa; conditions: 500 μM
Excerpt: Similarly to Bacillus subtilis, Pseudomonas aeruginosa forms a complex architecture on defined medium. These complex structures require the proper formation and assembly of the extra-cellular matrix. […] For these experiments, the organism/strain was P.a. Harvard PA14, the culture medium was M63 and the cell inoculation was at 1.5×10^9 cfu.

Bacillus subtilis [3] = experiment: Cell growth in MSgg medium with shaking; format: cell-based; conditions: 3 μM
TasA-mCherry = format: cell-based, Bacillus subtilis; conditions: 6 μM
Experimental: Fluorescence microscopy. For fluorescence microscopy analysis, 1 ml of culture was harvested. The cells were washed with PBS buffer and suspended in 50 μl of PBS buffer. Cover slides were pretreated with poly L-lysine (Sigma). Samples were examined using an Olympus workstation BX61 microscope. Images were taken using the automated software program SimplePCI and analyzed with program MetaMorph (Universal Imaging Corporation).
The cells were grown to stationary phase with shaking in biofilm-inducing medium in the presence or absence of D-tyrosine (6 μM). […] In contrast, when the cells were washed by centrifugation, resuspended and then examined by fluorescence microscopy, untreated cells (which were often in clumps) were seen to be intensely decorated with TasA-mCherry. […] The localization of unmodified TasA protein was also analyzed by transmission electron microscopy using gold-labeled anti-TasA antibodies. […] 24-hour-old cultures were incubated without (images 1 and 2) or with (images 3-6) D-tyrosine (0.1 mM) for an additional 12 hours. TasA fibers were stained by immunogold labeling using anti-TasA antibodies, and visualized by transmission electron microscopy as described in the Examples. […] Filled arrows indicate fiber bundles; open arrows indicate individual fibers. The scale bar is 500 nm. The scale bar in the enlargements of images 2, 4 and 6 is 100 nm. […]

[4] = test system: Bacillus subtilis NCIB3610; experiment: Colony biofilm formation on solid MSgg medium; format: cell-based; conditions: 3 μM, 4 days
Experimental: (§1) Colony and pellicle formation. For colony formation on solid medium, cells were first grown to exponential growth phase in LB broth and 3 μl of culture were spotted onto solid MSgg medium containing 1.5% Bacto agar. The plates were incubated at 23° C. For pellicle formation in liquid medium, cells were grown to exponential phase and 6 μl of culture were mixed with 6 ml of medium in a 12-well plate (VWR). Plates were incubated at 23° C. Images of colonies and pellicles were taken using a SPOT camera (Diagnostic Instruments, USA).

[5] = test system: Bacillus subtilis NCIB3610; experiment: Pellicle (biofilm) formation in liquid biofilm-inducing medium; format: cell-based
Experimental: as §1
Preparing conditioned medium. Cells were grown in LB medium to exponential phase. 0.1 ml of culture was added to 100 ml of MSgg medium and grown without shaking in a 500 ml beaker at 23° C. Next, pellicles and conditioned medium was collected by centrifugation at 8,000 rpm for 15 min. The conditioned medium (supernatant fluid) was removed and filtered through a 0.22 μm filter. The filtrates were stored at 4° C. For further purification the biofilm-inhibiting activity was fractionated on a C-18 Sep Pak cartridge using stepwise elution of 0% to 100% methanol with steps of 5%.
To investigate whether mature biofilms produce a factor that triggers biofilm disassembly, the effect of concentrated and partially purified extracts of conditioned medium on pellicle formation when added to fresh medium was assayed. To this end, conditioned medium from an eight-day-old culture was applied to a C18 Sep Pak column. Concentrated eluate from the column was then added to a freshly inoculated culture. […] Further purification of the factor was achieved by eluting the cartridge in step-wise fashion with increasing concentrations of methanol.
Next, the minimum concentration (MIC for Minimal Inhibitory Concentration) needed to prevent biofilm formation was determined.

Pseudomonas aeruginosa = experiment: Attached single cells in well plate, Syto-9 staining; format: cell-based
Experimental: An alternative method to observe biofilm formation on a 6 well plate with or without D-amino acids and using Syto-9 staining was as follows: Pseudomonas aeruginosa biofilms were washed twice with PBS and then fixed for at least an hour in 5% Glutaraldehyde in PBS. The fixed biofilms were then rinsed once again with PBS and soaked in 0.1% v/v Triton X-100 in PBS (PBST) for 15 minutes. The solution was exchanged with 0.1 nM […] (Invitrogen) in cold PBST and gently rocked in the dark for at least 15 minutes. Fluorescence images of the biofilms were captured with a Leica DMRX compound microscope using a Xe lamp and a K3 Leica filtercube. […] The amount of attached single cells was quantified using image J. The decrease in the amount of cells attached to the epoxy surfaces soaked with D-aa compared with the L-aa control was substantially more.

## N[C@H](Cc1ccc(O)cc1)C(=O)O [D-tyrosine]
[1]
  yqxM and eps expression (FIG. 9A, 9B): substantially the same as the untreated sample
Bacillus subtilis [2]
  Breakdown of existing pellicles (FIG. 2C): conspicuous breakdown of pellicles
P.a. Harvard PA14
  Biofilm formation on defined medium (FIG. 20): inhibited biofilm formation
Bacillus subtilis [3]
  Cell growth (FIG. 8): substantially the same as the untreated sample
TasA-mCherry; grown to stationary phase with shaking
  total accumulation of TasA-mCherry (FIG. 3B): little or no effect
TasA-mCherry; grown to stationary phase, washed and resuspended
  Cell decoration with TasA-mCherry, fluorescence microscopy of washed cells: only low levels of fluorescence
[4]
  Biofilm formation on solid MSgg medium (FIG. 6): inhibited biofilm formation
[5]; 3 μM, freshly inoculated culture, biofilm-inducing medium, 3 days
  Effect on pellicle formation (FIG. 2A): significant inhibition of biofilm growth
[5]; FIG. 2B, complete inhibition of pellicle formation, mixture in equimolar amounts
  minimum concentration (MIC / MBIC) needed to prevent biofilm formation: about 100 nM
[5]; summary statement, concentration not given
  Biofilm-inhibition assay for B. subtilis: significant inhibition of biofilm growth
Pseudomonas aeruginosa; Pseudomonas aeruginosa, 12 h, read-out: % Inhibition relative to control (0%, <50%, 50-90%, >90%)
  inhibition at 50 µM: > 90%
Pseudomonas aeruginosa; concentration not given
  number of cells attached to the bottom of the biofilm plate (FIG. 21): dramatic decrease in the number of cells attached
